The text below walks through data of US7772383B2, “Chemical PCR: Compositions for enhancing polynucleotide amplification reactions” (The Trustees of Princeton University, priority 2002, dated 2010).

Type in all cases: biochemical
Experiment [1] relates to 511 bp segment of human prostate-specific membrane antigen (PSM) cDNA. Nature of the experiment: PCR amplification of PSM cDNA with diol additives, standard cycling. The note with it: PSM; for Specificity: best specificity (densitometric volume of target as percent of total volume) over the effective range; for Effective range: concentration interval over which densitometric volume of target is at least 50% of maximum; for Potency: normalized maximum densitometric volume of target band: 1,3-Butanediol = 1. Here is the method:
(§1) Amplification reactions were carried out under the following general conditions. Those skilled in the art will appreciate, however, that to the extent that the conditions (set forth in this application) required for specific experiments described in this example were inconsistent with the following general conditions, limited exceptions to the following general conditions were made The general conditions were as follows: 10 Mm Tris-HCl (Ph 8.8), 50 Mm KCl, 1.5 Mm MgCl2, 0.01% (w/v) gelatin, 0.2 Um primers, 0.06 ng/ul template, 0.2 Mm each Dntp, 0.04 U/ul Taq polymerase. The templates used were bovine brain N-WASP cDNA (1518 bp), a 996 bp segment of human myeloid leukocyte c-jun cDNA, a 511 bp segment of human prostate-specific membrane antigen (PSM) cDNA, and bovine brain glycolipid transfer protein (GTP) cDNA (660 bp). cDNA synthesis was carried out using the FIRST-STRAND® RT-PCR kit from Stratagene on the respective mRNAs purchased from Clontech. All amplification reactions for gene were carried out using a single master batch of cDNA. Taq polymerase and dNTPs were obtained from Stratagene. Primers were obtained from Genosys. Primer melting temperatures (Tms) were calculated using the Genosys oligo calculator program. The sequences of the primers were as follows.
(§2) Polymerase chain reactions for the N-WASP gene were conducted on a ROBOCYCLER® Gradient 40 thermal cycler from Stratagene using 100 ul solutions in 600 ul thin-walled tubes. For expediency, amplification of c-jun, PSM and GTP was carried out in a ROBOCYCLER® Gradient 96 thermal cycler from Stratagene using 50 ul solutions in 200 ul thin-walled tubes. Prior to Taq polymerase addition, a hotstart protocol was carried out that consisted of an initial cycle of 95° C. for 5 minutes (11) to ensure complete first-strand separation, followed by a cycle of 54° C. for 5 minutes. Amplifications were run for 30 cycles. […] Extension was done at 72° C. for periods depending on target length: 2 minutes for N-WASP, 1.5 minutes for c-jun and GTP, and 1 minute for PSM. Annealings were carried out either at fixed concentrations of additives using temperature gradients of 38-56° C. for N-WASP and 44-58° C. for the other targets, or at varying concentrations of additives using fixed temperatures of 41° C. for N-WASP, 50° C. for c-jun and PSM, and 54° C. for GTP.
(§3) Amplification products were analyzed by agarose gel electrophoresis on 0.8% agarose gels in which 20 ul reaction products were loaded with 4 ul loading buffer. Gels were stained with ethidium bromide, visualized on a UV transilluminator (Fisher), and documented by photography. Densitometric quantitation of amplification products was carried out using IMAGE SCANNER® and IMAGE MASTER® software from Amersham Pharmacia. Background correction was done using the software's rolling disc method.
(§4) With PSM, 1,2-propanediol, 1,2-butanediol, 1,3-butanediol, 1,4-butanediol and glycerol were tested; with c-jun, ethylene glycol and 1,3-propanediol were also tested in addition to these compounds. […] The following additive concentrations were tested using these annealing temperatures: 1,2-propanediol—0.5, 0.8, 1.1, 1.4, 1.7 and 2.0M; 1,2-butanediol—0.1, 0.3, 0.5, 0.6, 0.7 and 0.8M; 1,3-butanediol—0.1, 0.3, 0.5, 0.6, 0.9, 1.1, 1.2M; 1,4-butanediol—0.1 to 1.1M in 0.2M intervals; 1,5-pentanediol—0.1-0.6M in 0.1M intervals; glycerol—0.5 to 1.9M in 0.2M intervals, and 2.2M.

The subject of experiment [2] is 996 bp segment of human myeloid leukocyte c-jun cDNA. Nature of the experiment: PCR amplification of c-jun cDNA with diol additives, standard cycling. The note with it: c-jun; for Effective range: concentration interval over which densitometric volume of target band is at least 50% of maximum volume; for Potency: normalized maximum densitometric volume of target band: 1,5-Pentanediol = 1. Here is the method: as §1, §2, §3, §4

For experiment [3], the system named is bovine brain glycolipid transfer protein (GTP) cDNA (660 bp). Nature of the experiment: PCR amplification of GTP cDNA with diol additives, standard cycling. The following applies: for Potency / Effective range: GTP; for Potency: 95° C. denaturing, 72° C. extension, normalized maximum densitometric volume of target band: 1,5-Pentanediol = 1; for Effective range: concentration interval over which densitometric volume of target band is at least 50% of maximum volume. The protocol: as §1, §2, §3
Investigations into the PCR enhancing capabilities of diol cosolvents were carried out using GTP as the primary template. […] The standard protocol for annealing temperature and concentration gradient screening was again followed. […] These cosolvents were thus omitted from further studies. The optimal annealing temperatures for the remaining compounds were: ethylene glycol, 1,2-propanediol, 1,3-propanediol and cis-1,2-cyclopentanediol—58° C.; 1,2-butanediol—54° C.; 1,3-butanediol and 1,4-butanediol—[…]; 2,4-pentanediol, 1,5-pentanediol, 1,6-hexanediol and MPD—56° C.

Molecules are shown by their SMILES.

As to `OCCCCCO` [1,5-Pentanediol], in experiment [1], the Specificity came out at 94%, the “Effective range” value was 0.31 to 0.49 M and the Potency is 0.54. For the same molecule, in experiment [2], the “Effective range” value lay within 0.17 to 0.45 M and the Potency is 1.00. Besides, in experiment [3], the Potency is on record as 1.00 and the “Effective range” value is 0.16 to 0.47 M. The “GTP Potency” value in experiment [3] (comparative standard 95/55/72° C., 0.3 M, best result under conventional conditions, normalization reference) is on record as 1.00.
Turning to `CCC(O)CO` (stereo not drawn) [1,2-Butanediol], the Specificity in experiment [1] was 92%. Further, the results for the “Effective range” value in experiment [1], in experiment [2] and in experiment [3] were 0.34 to 0.73 M, 0.27 to 0.74 M and 0.08 to 0.62 M, respectively. Besides, the figures for the Potency in experiment [1], in experiment [2] and in experiment [3] were 0.42, 0.64 and 0.57, respectively.
